Legend:
Assay in all cases: relative viability (nuclei count vs DMSO), 5 days (fraction); higher = more cells survive
CUDC-101 + Tozasertib = compound: C#Cc1cccc(Nc2ncnc3cc(OC)c(OCCCCCCC(=O)NO)cc23)c1 [CUDC-101] + Cc1cc(Nc2cc(N3CCN(C)CC3)nc(Sc3ccc(NC(=O)C4CC4)cc3)n2)n[nH]1 [Tozasertib] (partner 0.1 µM)
Method in brief: (§1)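 Relative viability divides the nuclei count in treated wells by that in vehicle wells. Lung cancer cell lines were seeded in 1536-well plates, dosed by pin tool the next day, and fixed and stained after 5 days in one step with final 0.05% Triton X-100, 1% formaldehyde and 1 ug/ml Hoechst. Dosing was a single drug or a fixed anchor-drug dose plus five library-drug doses (not always all listed) in √10 steps, and values are medians of duplicate plates imaged at 4×.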

Vandetanib + Alpelisib = compound: COc1cc2/c(=N/c3ccc(Br)cc3F)nc[nH]c2cc1OCC1CCN(C)CC1 [Vandetanib] + Cc1nc(NC(=O)N2CCC[C@H]2C(N)=O)sc1-c1ccnc(C(C)(C)C(F)(F)F)c1 [Alpelisib] (partner 2 µM)
Method in brief: as §1

Vandetanib + Luminespib = compound: COc1cc2/c(=N/c3ccc(Br)cc3F)nc[nH]c2cc1OCC1CCN(C)CC1 [Vandetanib] + CCNC(=O)c1noc(-c2cc(C(C)C)c(O)cc2O)c1-c1ccc(CN2CCOCC2)cc1 [Luminespib] (partner 0.01 µM)
Method in brief: as §1

NVP-TAE684 + OSI-027 = compound: COc1cc(N2CCC(N3CCN(C)CC3)CC2)ccc1Nc1ncc(Cl)c(Nc2ccccc2S(=O)(=O)C(C)C)n1 [NVP-TAE684] + COc1cccc2cc(-c3nc([C@H]4CC[C@H](C(=O)O)CC4)n4ncnc(N)c34)[nH]c12 [OSI-027] (partner 0.5 µM)
Method in brief: as §1

Cell Line | relative viability (CUDC-101 + Tozasertib; first compound 0.01 µM) | relative viability (CUDC-101 + Tozasertib; first compound 0.03162 µM) | relative viability (CUDC-101 + Tozasertib; first compound 0.1 µM) | relative viability (CUDC-101 + Tozasertib; first compound 0.3162 µM) | relative viability (CUDC-101 + Tozasertib; first compound 1 µM) | relative viability (Vandetanib + Alpelisib; first compound 0.02 µM) | relative viability (Vandetanib + Alpelisib; first compound 0.06325 µM) | relative viability (Vandetanib + Alpelisib; first compound 0.2 µM) | relative viability (Vandetanib + Alpelisib; first compound 0.6325 µM) | relative viability (Vandetanib + Alpelisib; first compound 2 µM) | relative viability (Vandetanib + Luminespib; first compound 0.02 µM) | relative viability (Vandetanib + Luminespib; first compound 0.06325 µM) | relative viability (Vandetanib + Luminespib; first compound 0.2 µM) | relative viability (Vandetanib + Luminespib; first compound 0.6325 µM) | relative viability (Vandetanib + Luminespib; first compound 2 µM) | relative viability (NVP-TAE684 + OSI-027; first compound 0.2 µM) | relative viability (NVP-TAE684 + OSI-027; first compound 0.6325 µM) | relative viability (NVP-TAE684 + OSI-027; first compound 2 µM)
NCI-H2405 | 0.748 | 0.809 | 0.725 | 0.756 | 0.611 | 0.813 | 0.405 | 0.733 | 0.958 | 0.677 | 0.736 | 0.539 | 0.776 | 0.642 | 0.55 | 0.564 | 0.613 | 0.261
NCI-H2087 | 0.292 | 0.243 | 0.233 | 0.195 | 0.223 | 0.953 | 1.17 | 1.28 | 1.04 | 1.07 | 0.183 | 0.197 | 0.132 | 0.179 | 0.255 | 0.538 | 0.438 | 0.354
NCI-H2023 | 0.336 | 0.337 | 0.363 | 0.328 | 0.293 | 0.568 | 0.49 | 0.732 | 0.524 | 0.486 | 0.811 | 0.604 | 0.796 | 0.731 | 0.497 | 0.412 | 0.258 | 0.101
NCI-H3122 | 0.373 | 0.451 | 0.391 | 0.321 | 0.386 | 0.781 | 0.756 | 0.778 | 0.765 | 0.822 | 0.0842 | 0.111 | 0.0787 | 0.0959 | 0.0934 | 0.173 | 0.127 | 0.154
ChaGo-K-1 | 0.216 | 0.214 | 0.246 | 0.238 | 0.208 | – | – | – | – | – | 0.633 | 0.593 | 0.616 | 0.59 | 0.507 | 0.589 | 0.546 | 0.416
NCI-H2347 | 0.561 | 0.614 | 0.608 | 0.583 | 0.499 | 1.01 | 0.591 | 1.05 | 1.28 | 1.03 | 0.594 | – | 0.333 | 0.642 | 0.574 | 0.403 | 0.368 | 0.301
NCI-H460 | 0.379 | 0.393 | 0.396 | 0.629 | 0.373 | 0.503 | 0.556 | 0.0233 | 0.434 | 0.419 | 0.0345 | 0.0344 | 0.0312 | 0.0333 | 0.0336 | 0.811 | 0.607 | 0.162
HCC-827 | 0.381 | 0.236 | 0.143 | 0.111 | 0.101 | 1.02 | 0.986 | 0.752 | 0.233 | 0.167 | 0.897 | 0.589 | 0.57 | 0.183 | 0.147 | 0.681 | 0.743 | 0.848
HOP-62 | 0.343 | 0.379 | 0.399 | 0.405 | 0.321 | 0.814 | 0.836 | 0.746 | 0.972 | 0.993 | 0.884 | 0.886 | 0.909 | 0.823 | 0.848 | 0.902 | 0.878 | –
NCI-H1792 | – | – | – | – | – | 0.676 | 0.672 | 0.694 | 0.705 | 0.565 | 0.492 | 0.496 | 0.355 | 0.461 | 0.413 | 0.779 | 0.731 | 0.818
HCC-15 | 0.383 | 0.368 | 0.314 | 0.322 | 0.238 | 0.877 | 0.84 | 0.93 | 0.874 | 0.793 | 0.343 | 0.293 | 0.0608 | 0.298 | 0.227 | 0.631 | 0.525 | 0.381
NCI-H1755 | 0.478 | 0.563 | 0.572 | 0.602 | 0.584 | 0.935 | 0.888 | 0.872 | 0.896 | 0.858 | 0.396 | 0.43 | 0.409 | 0.783 | 0.353 | 0.636 | 0.672 | 0.453
NCI-H23 | 0.34 | 0.315 | 0.288 | 0.384 | 0.574 | 0.609 | 0.613 | 0.566 | 0.772 | 0.532 | 0.259 | 0.224 | 0.232 | 0.221 | 0.221 | 0.666 | 0.544 | 0.236
BEN | 0.54 | 0.505 | 0.452 | 0.47 | 0.427 | 0.976 | 0.897 | 0.928 | 1.04 | 0.867 | 0.448 | 0.333 | 0.469 | 0.297 | 0.351 | 0.27 | 0.311 | 0.265
NCI-H1651 | 0.622 | 0.712 | 0.613 | 0.788 | 0.585 | 0.912 | 0.905 | 0.953 | 1.02 | 0.837 | 1.09 | 1.01 | 0.171 | 0.901 | 0.641 | 0.692 | 0.79 | 0.295
NCI-H2126 | 0.892 | 0.79 | 0.807 | 0.867 | 0.743 | 0.787 | 0.74 | 0.757 | 0.737 | 0.674 | 0.882 | 0.855 | 0.888 | 0.914 | 0.687 | 0.603 | 0.631 | 0.493
EKVX | 0.392 | 0.32 | 0.394 | 0.366 | 0.295 | 0.95 | 0.873 | 0.86 | 0.777 | 0.424 | 0.878 | 0.86 | 0.956 | 0.827 | 0.65 | 0.577 | 0.698 | 0.521
NCI-H1650 | 0.398 | 0.318 | 0.305 | 0.383 | 0.267 | – | – | – | – | – | 0.198 | 0.216 | 0.161 | 0.21 | 0.154 | 0.374 | 0.437 | 0.217
NCI-H1703 | – | – | – | – | – | 0.306 | – | 0.347 | 0.284 | 0.222 | – | – | – | – | – | – | – | –
